# Experimental data reported in patent US20240335451A1, “ACRYLAMIDE DERIVATIVES USEFUL AS ANTI-INFLAMMATORY AGENTS” (Sitryx Therapeutics Limited, priority 2021, published 2024).
# What was measured:
# Format in all cases: cell-based
# [1] = test system: NRF2 (nuclear factor erythroid 2-related factor 2); experiment: NRF2 activation assay (DiscoverX PathHunter NRF2 translocation kit, U2OS cells); conditions: for Emax / EC50: Homo sapiens; for Emax: U2OS; for EC50: U2OS PathHunter cells, 6 hours
# [2] = test system: IL-1β cytokine output from THP-1s; experiment: THP-1 AlphaLISA IL-1β cytokine assay (differentiated THP-1 cells, LPS then nigericin); conditions: 30 min pre-incubation, LPS 24 hr, nigericin 1 hour
# Procedure: (§1) Measuring Inhibitory Effects on IL-1β and IL-6 Cytokine Output from THP-1s
# (§2) The cytokine inhibition profiles of compounds of formula (I) were determined in a differentiated THP-1 cell assay. All assays were performed in RPMI-1640 growth medium (Gibco), supplemented with 10% fetal bovine serum (FBS; Gibco), 1% penicillin-streptomycin and 1% sodium pyruvate unless specified otherwise. The IL-1β and IL-6 cytokine inhibition assays were each run in a background of differentiated THP-1 cells as described below. All reagents described were from Sigma-Aldrich unless specified otherwise. Compounds were prepared as 10 mM DMSO stocks.
# (§3) THP-1 cells were expanded as a suspension up to 80% confluence in appropriate growth medium. Cells were harvested, suspended, and treated with an appropriate concentration of phorbol 12-myristate 13-acetate (PMA) over a 72 hr period (37° C./5% CO2).
# (§4) Following 72 hrs of THP-1 cell incubation, cellular medium was removed and replaced with fresh growth media containing 1% of FBS. Working concentrations of compounds were prepared separately in 10% FBS treated growth medium and pre-incubated with the cells for 30 minutes (37° C./5% CO2). Following the 30 minute compound pre-incubation, THP-1s were treated with an appropriate concentration of LPS and the THP-1s were subsequently incubated for a 24 hr period (37° C./5% CO2). An appropriate final concentration of Nigericin was then dispensed into the THP-1 plates and incubated for 1 hour (37° C./5% CO2) before THP-1 supernatants were harvested and collected in separate polypropylene 96-well holding plates.
# (§5) Reagents from each of the IL-1β and IL-6 commercial kits (Perkin Elmer) were prepared and run according to the manufacturer's instructions. Subsequently, fluorescence signal detection in a microplate reader was measured (EnVision® Multilabel Reader, Perkin Elmer).
# (§6) Percentage inhibition was calculated per cytokine by normalizing the sample data to the high and low controls used within each plate (+/−LPS respectively).
# [3] = test system: IL-6 cytokine output from THP-1s; experiment: THP-1 AlphaLISA IL-6 cytokine assay (differentiated THP-1 cells, LPS then nigericin); conditions: 30 min pre-incubation, LPS 24 hr, nigericin 1 hour
# Procedure: as §1, §2, §3, §4, §5, §6
# [4] = +GSH, normalised to dimethyl fumarate high control
# [5] = −GSH, normalised to dimethyl fumarate high control
# [6] = +GSH (30 minute compound/GSH pre-incubation)
IC50 ([2]; Homo sapiens) [µM],IC50 ([3]; Homo sapiens) [µM],SMILES,further results
> 100,,"C=C(Cc1ccccc1Cl)C(=O)O [2-(2-chlorobenzyl)acrylic acid, reference compound]","Emax [1, 4]: 9%; Emax [1, 5]: 2%; EC50 [1, 6]: > 100 µM; EC50 ([1]; −GSH): > 100 µM"
,,"C=C(CC(=O)OCCCCCCCC)C(=O)O [4-octyl itaconate, reference compound]","NRF2 activation Emax, +GSH [1, 4]: 148%; NRF2 activation Emax, −GSH [1, 5]: 165%; IC50 [3]: 21.1 µM; IC50 [2]: 39.8 µM"
1,0.9,"C=C(Cc1nc(C2(c3ccc(SC(F)(F)F)cc3)CC2)no1)C(=O)Nc1ncc(C)s1 [Example 1, N-(5-methylthiazol-2-yl)-2-((3-(1-(4-((trifluoromethyl)thio)phenyl)cyclopropyl)-1,2,4-oxadiazol-5-yl)methyl)acrylamide]",
0.4,0.6,"C=C(Cc1nc(C2(c3ccc(SC(F)(F)F)cc3)CC2)no1)C(=O)Nc1cnccn1 [Example 2, N-(pyrazin-2-yl)-2-((3-(1-(4-((trifluoromethyl)thio)phenyl)cyclopropyl)-1,2,4-oxadiazol-5-yl)methyl)acrylamide]","Emax [1, 4]: 79%; Emax [1, 5]: 117%; EC50 [1, 6]: 5.2 µM; EC50 ([1]; −GSH): 0.9 µM"
4.5,,"C=C(Cc1nc(Cc2ccc(CCCC)cc2)no1)C(=O)Nc1ccccn1 [Example 3, 2-((3-(4-butylbenzyl)-1,2,4-oxadiazol-5-yl)methyl)-N-(pyridin-2-yl)acrylamide]",
1.1,,"C=C(Cc1nc(Cc2ccc(CCCC)cc2)no1)C(=O)Nc1cnccn1 [Example 4, 2-((3-(4-butylbenzyl)-1,2,4-oxadiazol-5-yl)methyl)-N-(pyrazin-2-yl)acrylamide]",
1.9,,"C=C(Cc1nc(Cc2ccc(CCCC)cc2)no1)C(=O)Nc1ncc(C)s1 [Example 5, 2-((3-(4-butylbenzyl)-1,2,4-oxadiazol-5-yl)methyl)-N-(5-methylthiazol-2-yl)acrylamide]",
3.8,2.1,"C=C(CC(=O)OC(C)(C)CCCCCC)C(=O)Nc1cnccn1 [Example 6, 2-methyloctan-2-yl 3-(pyrazin-2-ylcarbamoyl)but-3-enoate]",
20.5,12.1,"C=C(CC(=O)OC1(c2ccc(C(F)(F)F)cc2)CCC1)C(=O)NC [Example 7, 1-(4-(trifluoromethyl)phenyl)cyclobutyl 3-(methylcarbamoyl)but-3-enoate]","Emax [1, 4]: 27%; Emax [1, 5]: 119%; EC50 [1, 6]: > 100 µM; EC50 ([1]; −GSH): 12.6 µM"
34.3,13.9,"C=C(CC(=O)OC1(c2ccc(C(F)(F)F)cc2)CCC1)C(N)=O [Example 8, 1-(4-(trifluoromethyl)phenyl)cyclobutyl 3-carbamoylbut-3-enoate]","Emax [1, 4]: 7%; Emax [1, 5]: 21%; EC50 [1, 6]: > 100 µM; EC50 ([1]; −GSH): > 100 µM"
10,4.5,"C=C(CC(=O)O[C@@H](C)c1ccc(C(F)(F)F)cc1)C(N)=O [Example 9, (S)-1-(4-(trifluoromethyl)phenyl)ethyl 3-carbamoylbut-3-enoate]","Emax [1, 4]: 26%; Emax [1, 5]: 110%; EC50 [1, 6]: > 100 µM; EC50 ([1]; −GSH): 13.7 µM"
10.5,3.5,"C=C(CC(=O)O[C@@H](C)c1ccc(C(F)(F)F)cc1)C(=O)NC [Example 10, (S)-1-(4-(trifluoromethyl)phenyl)ethyl 3-(methylcarbamoyl)but-3-enoate]",
3.3,1.9,"C=C(CC(=O)O[C@H](C)c1ccc(C(F)(F)F)cc1)C(=O)NC [Example 11, (R)-1-(4-(trifluoromethyl)phenyl)ethyl 3-(methylcarbamoyl)but-3-enoate]",
20,14.4,"C=C(CC(=O)O[C@H](C)c1ccc(C(F)(F)F)cc1)C(N)=O [Example 12, (R)-1-(4-(trifluoromethyl)phenyl)ethyl 3-carbamoylbut-3-enoate]",
17.5,2.6,"C=C(CC(=O)OC1(c2ccc(C(F)(F)F)cc2)COC1)C(=O)NC [Example 13, 3-(4-(trifluoromethyl)phenyl)oxetan-3-yl 3-(methylcarbamoyl)but-3-enoate]",
6.5,4.4,"C=C(CC(=O)OC1(c2ccc(C(F)(F)F)cc2)COC1)C(N)=O [Example 14, 3-(4-(trifluoromethyl)phenyl)oxetan-3-yl 3-carbamoylbut-3-enoate]",
13.1,10.9,"C=C(CC(=O)OC1(c2ccc(C(F)(F)F)cn2)COC1)C(=O)NC [Example 15, 3-(5-(trifluoromethyl)pyridin-2-yl)oxetan-3-yl 3-(methylcarbamoyl)but-3-enoate]",
8.6,4.6,"C=C(CC(=O)OC1(c2ccc(C(F)(F)F)cn2)COC1)C(N)=O [Example 16, 3-(5-(trifluoromethyl)pyridin-2-yl)oxetan-3-yl 3-carbamoylbut-3-enoate]",
14.4,4.8,"C=C(CC(=O)OC1(c2ccc(C(F)(F)F)cn2)CCC1)C(=O)NC [Example 17, 1-(5-(trifluoromethyl)pyridin-2-yl)cyclobutyl 3-(methylcarbamoyl)but-3-enoate]",
9.3,14.4,"C=C(CC(=O)OC1(c2ccc(C(F)(F)F)cn2)CCC1)C(N)=O [Example 18, 1-(5-(trifluoromethyl)pyridin-2-yl)cyclobutyl 3-carbamoylbut-3-enoate]",
17.5,3.3,"C=C(CC(=O)OC1(c2cc(Cl)cc(Cl)c2)CCC1)C(=O)NC [Example 19, 1-(3,5-dichlorophenyl)cyclobutyl 3-(methylcarbamoyl)but-3-enoate]",
15.4,6.9,"C=C(CC(=O)OC1(c2ccc(C(F)(F)F)c(F)c2)CCC1)C(N)=O [Example 21, 1-(3-fluoro-4-(trifluoromethyl)phenyl)cyclobutyl 3-carbamoylbut-3-enoate]",
> 31.6,24.1,"C=C(CC(=O)OC1(c2ccc(C(F)(F)F)cc2)CCC1)C(=O)NC1CCN(C)CC1 [Example 23, 1-(4-(trifluoromethyl)phenyl)cyclobutyl 3-((1-methylpiperidin-4-yl)carbamoyl)but-3-enoate]",
8.6,6.8,"C=C(CC(=O)OC1(c2ccc(C(F)(F)F)cc2)CCC1)C(=O)NCCN1CCOCC1 [Example 24, 1-(4-(trifluoromethyl)phenyl)cyclobutyl 3-((2-morpholinoethyl)carbamoyl)but-3-enoate]",
19.9,9.5,"C=C(CC(=O)OC1(c2ccc(C(F)(F)F)cc2)CCC1)C(=O)NC1CS(=O)(=O)C1 [Example 25, 1-(4-(trifluoromethyl)phenyl)cyclobutyl 3-((1,1-dioxidothietan-3-yl)carbamoyl)but-3-enoate]",
18,11.3,"C=C(CC(=O)OC1(c2ccc(C(F)(F)F)cc2)CCC1)C(=O)NCCS(C)(=O)=O [Example 26, 1-(4-(trifluoromethyl)phenyl)cyclobutyl 3-((2-(methylsulfonyl)ethyl)carbamoyl)but-3-enoate]",

SMILES,IC50 ([2]; Homo sapiens) [µM],IC50 ([3]; Homo sapiens) [µM],further results
"C=C(CC(=O)OC1(c2ccc(C(F)(F)F)cc2)CCC1)C(=O)NCC(=O)O [Example 29, (2-methylene-4-oxo-4-(1-(4-(trifluoromethyl)phenyl)cyclobutoxy)butanoyl) glycine]",> 100,> 31.6,
